Data from US20180036270A1, “A METHOD OF PROTECTING AGAINST CARBONYL STRESS INDUCED ISCHEMIA-REPERFUSION INJURY IN THE DIABETIC BRAIN VIA ADMINISTRATION OF N-ACETYLCYSTEINE” (Board of Supervisors of Louisiana State University and …, priority 2015, published 2018).
“Also recorded” adds a separate entry of the source.

How the values were obtained:
[1] = system: STZ-treated diabetic mice, I/R brain injury; test: Middle cerebral artery occlusion-reperfusion (MCAoR) brain infarct area in diabetic mice; assay type: in vivo, mouse; settings: 2 mM NAC in drinking water 1 or 3 weeks before MCAoR, 45 min ischemia, 24 h reperfusion
Procedure: Turning now to FIGS. 1A-1C, a brief description concerning the various components of the present invention will now be briefly discussed. As shown, ischemia/reperfusion (I/R) injury in control and diabetic brain was determined using the middle cerebral artery occlusion-reperfusion (MCAoR) model of Koizumi. MCA occlusion was for 45 min and reperfusion for 24 h. Diabetes model were: mice injected with streptozotocin (STZ) or Akita mice lacking the Insulin-2 gene which spontaneously developed diabetes in 4 wks. Results are mean±SE. NT=no treatment; Veh=citrate buffer; Veh+STZ=4 week post STZ. Ak—Akita. The post I/R infarct area is represented by the unstained (white) regions of left brain sections.
Turning to FIGS. 12A-12C, I/R injury in control and diabetic brain was determined using the middle cerebral artery occlusion-reperfusion (MCAoR) model of Koizumi. MCA occlusion was for 45 min and reperfusion for 24 h. Diabetes was induced with streptozotocin (STZ) and stroke was induced in 4-week diabetic mice. NAC (2 mM) was given in drinking water for 3 weeks. Results are mean±SE. Veh=citrate buffer; STZ=4 week post STZ. The post I/R infarct area is represented by the unstained (white) regions of left brain sections after staining with TTC.
Four-week-old male C57BL/6J mice, weighing 18-20 g, were purchased from Jackson Laboratory. […]

[2] = Plasma glucose levels in diabetic mice; assay type: in vivo, mouse; settings: 2 mM NAC for 3 weeks, 4 week diabetic mice
Procedure: Plasma levels in diabetic mice were elevated at ˜[…] which was 3-fold higher than controls (˜200 mg/dL). The percent (%) brain infarct area in vehicle- and STZ treated mice is linearly correlated with the plasma glucose level.
Four-week-old male C57BL/6J mice, weighing 18-20 g, were purchased from Jackson Laboratory. These mice were maintained at the Animal Facility of the Louisiana State University Health Sciences Center—Shreveport. Animal care and use in the experiments follow the guidelines in the Guide for the Care and Use of Laboratory Animals, published by the US National Institutes of Health. Following adaptation for 1 week, the mice were divided randomly into 4 groups: non-treated sham operation group (NT-sham group, n=6), non-treated I/R group (NT-I/R group, n=5), vehicle I/R group (Veh-I/R group, n=24), and streptozotocin I/R group (STZ-I/R group, n=19). […] On day 7, mice whose plasma glucose was more than 300 mg/dl were deemed to be diabetic. […] Another Veh-treated mice were injected (intraperitoneally, 12 hr interval) with 0.5M BSO 24 h before the ischemia operation and during the 24 h reperfusion period (Veh+BSO group, n=10). All mice were 9 weeks old at sacrifice.

[3] = system: human brain microvascular endothelial cells (IHECs); test: MG-occludin adduct formation in IHECs (Western blot, immunoprecipitation); assay type: cell-based; settings: IHECs in 5 mM glucose exposed to MG for 4 h with 2 mM NAC
[4] = system: platelet-leukocyte aggregates (PLAs); test: Platelet-leukocyte aggregate formation in STZ diabetic mice; assay type: in vivo, mouse; settings: 5 and 19 week diabetic mice; NAC 2 mM for 2 weeks
Procedure: Turning to FIGS. 25A-25D, the percent of circulating leukocytes forming aggregates with platelets at 5 weeks of diabetes is shown (FIG. 25A). Aggregate formation between platelets and leukocyte subpopulations include: lymphocytes (FIG. 25B), neutrophils (FIG. 25C) and monocytes (FIG. 25D). Non-diabetic (vehicle-treated (Veh)), diabetic (STZ) and diabetic mice treated with NAC (2 mM for 2 weeks) were assessed. Turning to FIGS. 26A-26D, the percent of circulating leukocytes forming aggregates with platelets at 19 weeks of diabetes is shown (FIG. 26A). Aggregate formation between platelets and leukocyte subpopulations include: lymphocytes (FIG. 26B), neutrophils (FIG. 26C) and monocytes (FIG. 26D). Non-diabetic (vehicle-treated (Veh)), diabetic (STZ) and diabetic mice treated with NAC (2 mM for 2 weeks) were assessed.

[5] = 60 mg/kg/d over 8-75 months in young children; cited from earlier work

**Q.** Which percent infarct area [1] does the source give for `CC(=O)N[C@@H](CS)C(=O)O` [NAC, N-acetylcysteine] here?
**A.** significantly attenuated; also recorded: protects the diabetic brain against injury induced by I/R

**Q.** What about the plasma glucose levels [2] of the same molecule?
**A.** did not alter

**Q.** What about the “occludin glycation (MG-occludin adduct)” value [3] of the same molecule?
**A.** prevent the formation of MG-occludin adducts; also recorded: prevented

**Q.** And the “platelet-leukocyte aggregate (PLA) formation” value [4]?
**A.** effectively normalized

**Q.** And the tolerability [5]?
**A.** well-tolerated
